Reference: US10472677B2, “Translational dysfunction based therapeutics” (Translational Therapeutics, Inc., priority 2005, dated 2019)

Tests used:
[1] = molecular target: T1, eIF4E W73A (Mus musculus, UniProt P63073, W73A); test: tryptophan fluorescence quenching titration, dorsal surface mutant; format: binding; details: relative to wild-type eIF4E
T1 construct: made in house
Protocol: For fluorescence titrations, mouse eIF4E, which differs from human eIF4E by four nonconserved amino acids, was produced as described. For NMR spectroscopy, mouse eIF4E was expressed as a fusion with the B1 domain of protein G (G4E, kind gift of Gerhard Wagner, Harvard University, Cambridge, Mass.), in BL21 (DE-3) cells by induction with 0.8 mM isopropyl-β-D-thiogalactopyranoside at 18° C. for 20 h in M9 minimal media containing 1 g/l ^15NH4Cl as the sole nitrogen source (Cambridge Isotopes). […] Eluate was dialyzed extensively against 0.1 M NaCl/50 mM Na2PO4 (pH 6.5)/5 mM DTT at 4° C. to produce apo-G4E, as verified by using NMR spectroscopy and fluorescence titrations. […]
Fluorescence measurements were performed by using a home-built fluorimeter, as described. All titrations were performed in 0.3 M NaCl/10 mM Na2PO4 (pH 7.5)/1 μM zinc in 0.3×0.3 cm^2 fluorescence cuvette (Hellma), by using eIF4E concentration of 2 μM. […] Corrected relative fluorescence intensities were normalized, and fluorescence quenching curves were fit to a heuristic single-site-binding expression: I/I0=Kd^n/(x^n+Kd^n) where x is ligand concentration, Kd is the apparent dissociation constant, and n is the Hill coefficient.

[2] = system: polysomal loading of eIF4E-sensitive mRNAs; test: polysomal loading of mRNAs, ribosome purification and quantitative RT-PCR; format: cell-based, mouse
Protocol: Cell pellets (500 mg) were homogenized in 1 ml of ice cold lysis buffer (20 mM Hepes/10 mM magnesium acetate/100 mM potassium acetate, pH 7.5) supplemented with protease inhibitors (EDTA-free Complete, Roche) and 400 units/ml of SUPERasine (Ambion), and incubated for 30 min on ice with occasional vortexing. Lysates were sedimented at 3,000×g for 10 min at 4° C. to pellet nuclei and cell debris. Supernatants were sedimented at 12,000×g for 20 min at 4° C. to pellet mitochondria. Cleared supernatants were then sedimented at 50,000 rpm (SW 50.1 rotor, Beckman) for 50 min at 4° C. to pellet ribosomes. Ribosomal pellets were resuspended in 200 μl of ice-cold lysis buffer and layered on top of 10-40% sucrose gradient buffered with the lysis buffer, and centrifuged at 50,000 rpm for 80 min at 4° C. RNA content of fractions was ascertained by using the ratio of absorbance at 260:280 nm. […] RNA from each fraction was quantified by spectrophotometry and 40 ng was converted into cDNA by using the Sensiscript reverse transcription kit (Qiagen, Valencia, Calif.). Quantitative real-time PCR was carried out in triplicate by using the QuantiTect SYBR green real-time PCR Kit (Qiagen) in an Opticon thermal cycler (MJ Research, Waltham, Mass.). […] Obtained real-time PCR profiles were analyzed by using Opticon software (MJ Research).

[3] = system: NIH 3T3 cells; format: cell-based, mouse
Protocol: For assessment of necrosis and apoptosis, cells were washed twice with PBS, suspended in 0.14 M NaCl/10 mM Na-Hepes (pH 7.4/2.5 mM CaCl2 at 4° C. at a density of 10^6 cell per ml, and stained with 5 μg/ml propidium iodide and FITC-conjugated annexin V (Becton Dickinson) for 15 min at room temperature Immediately thereafter, cells were washed and analyzed by using a FACSCalibur fluorescence-activated cell scanner (Becton Dickinson). For assessment of cell-cycle profiles, cells were washed twice with PBS, fixed, and permeabilized in 70% (vol/vol) ethanol for 30 min at 4° C., and incubated in PBS containing 10 μg/ml propidium iodide and 30 units/ml RNase A at 37° C. for 30 min. For both measurements, detector gain and compensation settings were adjusted to minimize autofluorescence of unstained cells and channel crosstalk. For cell-cycle analysis, the propidium iodide channel was gated based on light scattering to exclude clumped cells, which may artifactually skew the observed fluorescence intensity.
Cells were seeded at a density of 5,000 cells per well and maintained in 100 μl per well in 96-well plates. […] Production of formazan was quantified by using a μ Quant plate reader (Bio-Tek Instruments) by monitoring the difference in absorbance at 492 and 690 nm, as referenced to the difference in absorbance of samples containing 50 μl of RPMI medium 1640 without phenol red. […]

[4] = system: FaDu cells; test: Western blot of FaDu cells treated in culture; format: cell-based, human; details: 48 hours
Protocol: FaDu cells were grown in culture as described previously and treated with Ribavirin for 48 hours prior to preparation of protein extracts and western blot analysis.

T1 sequence (P63073 whole entry W73A): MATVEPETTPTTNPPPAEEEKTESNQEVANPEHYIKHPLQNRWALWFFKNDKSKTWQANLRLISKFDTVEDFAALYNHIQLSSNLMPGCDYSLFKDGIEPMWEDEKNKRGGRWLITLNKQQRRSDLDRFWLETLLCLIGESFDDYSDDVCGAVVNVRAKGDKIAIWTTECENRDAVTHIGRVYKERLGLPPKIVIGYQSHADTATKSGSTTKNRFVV

How did the “effect of W73A mutation on Ribavirin affinity” value [1] turn out when `NC(=O)c1ncn([C@@H]2O[C@H](CO)[C@@H](O)[C@H]2O)n1` [Ribavirin, 1-β-D-ribofuranosyl-1,2,4-triazole-3-carboxamide] was run?
The value was “no significant effect”.

And the “decrease of polysomal loading of VEGF and ODC mRNAs” value [2]?
Its value is > 1,000 fold.

And the “polysomal loading of cyclin D1 mRNA” value ([2]; 1 μM)?
The value was “no significant effect”.

And the “proportion of cells restricted to the G1 phase” value ([3]; 0.1 μM, untreated 58%)?
Its value is 91%.

And the “concentration with significant effects on viability and metabolism” value ([3]; mouse)?
Its value is ≥ 100 µM.

What about the “Actin and eIF4E protein levels” value [4] of the same molecule?
The value was “remain unchanged”.

What about the “protein level of NBS1, Cyclin D1 and ODC” value [4] of the same molecule?
The value was “decreased”.
